Measured values as given in patent US4617184A, “99m Tc-1,2-dihydroxy-1,2-bis(dihydroxyphosphinyl)ethane complex for skeleton scanning” (priority 1984, dated 1986).

Tests used:
[1] = Distribution in rats of the complex prepared by electrochemical reduction; type: in vivo, Hooded strain rats; details: i.v. tail vein, electrochemically prepared complex
Method: Four milliliters of a sterile aqueous solution containing 1.5 mg of DHPE, 20 mg of CH3 COONa and 10 mCi of Na^+99m TcO4^- were added to a sterile cell equipped with tin electrodes. An electrical charge of 5×10^-2 coulombs (20 sec×2.5 mA) was passed through to produce the ^99m Tc-DHPE complex. Paper chromatography of the solution was run according to the method outlined in Example 1. The determined radiochemical purity of the ^99m Tc-DHPE compound was 98%. The complex was assayed by intravenous injections into the tail veins of Hooded strain rats as in Example 1, the animals being sacrificed at 1, 2, 4, 6, 12, and 24 hours.

[2] = Organ distribution of ^99m Tc-DHPE (freeze dried kit) in rats, i.v. tail vein; type: in vivo, Hooded strain rats; design: Dose per Organ: unit not given here
Method: Twenty five milliliters of a sterile aqueous solution of 55.5 mg of DHPE were mixed with 12.5 mL of a freshly prepared sterile aqueous solution containing 0.1 mg of SnCl2 per milliliter and with 12.5 mL of a sterile aqueous solution of sodium acetate 10% W/V. Portions of 2 mL each of the resulting solution were transferred through a Millipore filter of 0.22 micron pore size into pharmaceutical vials. The vials were freeze dried for 24 hours and were sealed in vacuum. Four milliliters of saline solution of Na^+99m TcO4^- (20 millicuries Tc-99m) were added to each vial. The vial was vigorously shaken, and then allowed to stand for five minutes at normal ambient temperature.
Two hundred fifty microliters of the above solution of the radiopharmaceutical ^99m Tc-DHPE were injected i.v. (intravenously) in the tail vein of each of six Hooded strain, closed colony, random breeding rats. The rats were sacrificed at the following time periods 1 hr, 2 hr, 4 hr, 6 hr, 12 hr, and 24 hrs. The organs of each rat were isolated and the distribution of Tc-99m determined by assay with a single channel analyzer equipped with a well type NaI(T1) scintillation detector.
The experimental error in the distribution vs. time data for the ^99m Tc-DHPE complex was minimized by averaging six runs under identical conditions, always with the Hooded strain rats. The effect of organ geometry on radioactivity counting efficiency was taken into account. Corrections were also made so that, upon extrapolation back to time zero, the summation of activity in the organs was equal to the injected activity (i.e. by comparison to standards).

[3] = Gamma camera bone imaging in anesthetized rabbit; type: in vivo
Method: Two milliliters of a sterile saline solution of Na^+99m TcO4^- (IO millicuries Tc-99m) were added to a pharmaceutical vial containing 2 mL of a sterile aqueous solution containing 2.2 mg of DHPE, 50μg of SnCl2 and 50 mg of CH3 COONa. The vial was vigorously shaken, then allowed to stand for five minutes at room temperature. Paper chromatography of the solution was run according to the method outlined in Example 1 and only 2% unreacted pertechnetate was found.
Bone imaging was carried out by intravenous injection of 0.5 milliliters of this solution into the ear vein of an anesthetized rabbit positioned under a gamma camera. […] As time passed the quality of the images improved. […] Less than 30% of the initial radioactivity in the blood was detected in the blood 30 minutes after injection.

[4] = Acute and chronic toxicity of DHPE in rodents; type: in vivo; details: injected doses 5 to 250 mg per kg of body weight
Description: The amount of complexing agent required to be injected into a test animal or human patient for a satisfactory skeleton scintigraphy is three orders of magnitude smaller than the highest tested dose.

## ^99m Tc-1,2-Dihydroxy-1,2-bis(dihydroxyphosphinyl)ethane Complex [^99m Tc-DHPE]
[1]
  excretion: mainly to the urine
  skeleton uptake: rapid skeleton uptake
[1]; effect on bone specificity
  uptake by other organs: did not detract significantly from bone specificity
[2]; ADRENALS, 1 hr
  Dose per Organ: 0.006 ± 0.006
[2]; ADRENALS, 2 hr
  Dose per Organ: 0.007 ± 0.005
[2]; ADRENALS, 4 hr
  Dose per Organ: 0.003 ± 0.001
[2]; ADRENALS, 6 hr
  Dose per Organ: 0.003 ± 0.001
[2]; ADRENALS, 12 hr
  Dose per Organ: 0.001 ± 0.000
[2]; ADRENALS, 24 hr
  Dose per Organ: 0.001 ± 0.000
[2]; BLOOD, 1 hr
  Dose per Organ: 0.742 ± 0.384
[2]; BLOOD, 2 hr
  Dose per Organ: 0.895 ± 0.515
[2]; BLOOD, 4 hr
  Dose per Organ: 0.643 ± 0.414
[2]; BLOOD, 6 hr
  Dose per Organ: 0.322 ± 0.067
[2]; BLOOD, 12 hr
  Dose per Organ: 0.312 ± 0.209
[2]; BLOOD, 24 hr
  Dose per Organ: 0.104 ± 0.015
[2]; BONE, 1 hr
  Dose per Organ: 44.426 ± 2.556
[2]; BONE, 2 hr
  Dose per Organ: 45.722 ± 3.411
[2]; BONE, 4 hr
  Dose per Organ: 53.447 ± 2.828
[2]; BONE, 6 hr
  Dose per Organ: 47.673 ± 6.612
[2]; BONE, 12 hr
  Dose per Organ: 42.362 ± 4.449
[2]; BONE, 24 hr
  Dose per Organ: 43.317 ± 2.825
[2]; FECES, 1 hr
  Dose per Organ: 0.034 ± 0.054
[2]; FECES, 2 hr
  Dose per Organ: 0.053 ± 0.088
[2]; FECES, 4 hr
  Dose per Organ: 0.394 ± 0.343
[2]; FECES, 6 hr
  Dose per Organ: 0.570 ± 0.205
[2]; FECES, 12 hr
  Dose per Organ: 0.848 ± 0.601
[2]; FECES, 24 hr
  Dose per Organ: 3.149 ± 1.799
[2]; HEART, 1 hr
  Dose per Organ: 0.022 ± 0.008
[2]; HEART, 2 hr
  Dose per Organ: 0.026 ± 0.012
[2]; HEART, 4 hr
  Dose per Organ: 0.018 ± 0.008
[2]; HEART, 6 hr
  Dose per Organ: 0.015 ± 0.004
[2]; HEART, 12 hr
  Dose per Organ: 0.011 ± 0.005
[2]; HEART, 24 hr
  Dose per Organ: 0.006 ± 0.001
[2]; KIDNEYS, 1 hr
  Dose per Organ: 1.523 ± 0.371
[2]; KIDNEYS, 2 hr
  Dose per Organ: 1.782 ± 0.365
[2]; KIDNEYS, 4 hr
  Dose per Organ: 1.441 ± 0.277
[2]; KIDNEYS, 6 hr
  Dose per Organ: 2.716 ± 0.365
[2]; KIDNEYS, 12 hr
  Dose per Organ: 3.018 ± 0.825
[2]; KIDNEYS, 24 hr
  Dose per Organ: 1.187 ± 0.119
[2]; LARGE INTESTINE, 1 hr
  Dose per Organ: 1.548 ± 1.380
[2]; LARGE INTESTINE, 2 hr
  Dose per Organ: 2.210 ± 1.789
[2]; LARGE INTESTINE, 4 hr
  Dose per Organ: 2.906 ± 3.009
[2]; LARGE INTESTINE, 6 hr
  Dose per Organ: 3.209 ± 0.684
[2]; LARGE INTESTINE, 12 hr
  Dose per Organ: 0.648 ± 0.615
[2]; LARGE INTESTINE, 24 hr
  Dose per Organ: 0.415 ± 0.448
[2]; LIVER, 1 hr
  Dose per Organ: 0.095 ± 0.018
[2]; LIVER, 2 hr
  Dose per Organ: 0.184 ± 0.049
[2]; LIVER, 4 hr
  Dose per Organ: 0.187 ± 0.032
[2]; LIVER, 6 hr
  Dose per Organ: 0.168 ± 0.044
[2]; LIVER, 12 hr
  Dose per Organ: 0.131 ± 0.022
[2]; LIVER, 24 hr
  Dose per Organ: 0.134 ± 0.030
[2]; LUNGS, 1 hr
  Dose per Organ: 0.104 ± 0.033
[2]; LUNGS, 2 hr
  Dose per Organ: 0.149 ± 0.105
[2]; LUNGS, 4 hr
  Dose per Organ: 0.121 ± 0.029
[2]; LUNGS, 6 hr
  Dose per Organ: 0.032 ± 0.007
[2]; LUNGS, 12 hr
  Dose per Organ: 0.022 ± 0.015
[2]; LUNGS, 24 hr
  Dose per Organ: 0.044 ± 0.024
[2]; MUSCLE, 1 hr
  Dose per Organ: 1.138 ± 0.511
[2]; MUSCLE, 2 hr
  Dose per Organ: 2.371 ± 1.206
[2]; MUSCLE, 4 hr
  Dose per Organ: 2.193 ± 0.974
[2]; MUSCLE, 6 hr
  Dose per Organ: 4.216 ± 2.815
[2]; MUSCLE, 12 hr
  Dose per Organ: 2.139 ± 0.389
[2]; MUSCLE, 24 hr
  Dose per Organ: 2.699 ± 1.989
[2]; SMALL INTESTINE, 1 hr
  Dose per Organ: 0.963 ± 0.868
[2]; SMALL INTESTINE, 2 hr
  Dose per Organ: 1.963 ± 2.085
[2]; SMALL INTESTINE, 4 hr
  Dose per Organ: 1.009 ± 1.243
[2]; SMALL INTESTINE, 6 hr
  Dose per Organ: 0.495 ± 0.205
[2]; SMALL INTESTINE, 12 hr
  Dose per Organ: 0.318 ± 0.113
[2]; SMALL INTESTINE, 24 hr
  Dose per Organ: 0.091 ± 0.033
[2]; SPLEEN, 1 hr
  Dose per Organ: 0.020 ± 0.007
[2]; SPLEEN, 2 hr
  Dose per Organ: 0.026 ± 0.007
[2]; SPLEEN, 4 hr
  Dose per Organ: 0.020 ± 0.003
[2]; SPLEEN, 6 hr
  Dose per Organ: 0.022 ± 0.007
[2]; SPLEEN, 12 hr
  Dose per Organ: 0.008 ± 0.002
[2]; SPLEEN, 24 hr
  Dose per Organ: 0.010 ± 0.004
[2]; STOMACH, 1 hr
  Dose per Organ: 0.288 ± 0.137
[2]; STOMACH, 2 hr
  Dose per Organ: 0.388 ± 0.176
[2]; STOMACH, 4 hr
  Dose per Organ: 0.226 ± 0.243
[2]; STOMACH, 6 hr
  Dose per Organ: 0.152 ± 0.148
[2]; STOMACH, 12 hr
  Dose per Organ: 0.082 ± 0.023
[2]; STOMACH, 24 hr
  Dose per Organ: 0.040 ± 0.029
[2]; URINE, 1 hr
  Dose per Organ: 28.584 ± 5.562
[2]; URINE, 2 hr
  Dose per Organ: 28.295 ± 1.829
[2]; URINE, 4 hr
  Dose per Organ: 31.469 ± 4.991
[2]; URINE, 6 hr
  Dose per Organ: 24.033 ± 5.995
[2]; URINE, 12 hr
  Dose per Organ: 6.519
[2]; URINE, 24 hr
  Dose per Organ: 8.600
[2]; rats, i.v.
  excretion: mainly via the kidneys to urine
  removal from the blood: fast removal
[2]; rats, i.v., in comparison to other organs or tissues
  concentration to the skeleton: fast and high concentration to the skeleton
[3]; 30 minutes after injection
  initial radioactivity in the blood detected in the blood: Less than 30%
[3]; i.v. ear vein
  removal of the radiopharmaceutical from the blood: fast removal
[3]; i.v. ear vein, 1 to 2.5 hrs post injection
  quality of skeleton images: Excellent images of the skeleton
[3]; i.v. ear vein, thirty minutes post injection
  skeleton visualization: clearly visualized

## O=P(O)(O)C(O)C(O)P(=O)(O)O (centres unmarked) [DHPE, 1,2-dihydroxy-1,2-bis(dihydroxyphosphinyl)ethane]
[4]
  deaths or adverse effects (acute and chronic toxicity): no deaths or adverse effects
